This is an account of results in US6423347B1, “Method and product using sturgeon notochord for alleviating the symptoms of arthritis” (Abbott Laboratories, priority 1997, dated 2002).

Like-named read-outs stand apart in the source and are kept apart here.

The test system of experiment [1] is collagen-induced arthritis (CIA). The experiment is described as follows: Dose response of sturgeon notochord in protecting mice from CIA. Format: in vivo, DBA/1 Lac J strain mice. As to conditions: 0.1 mg/kg p.o. As for the experimental part:
To evaluate the dose response of sturgeon notochord in protecting mice from CIA, this experiment was conducted in a manner similar to Examples II and III. The mice were DBA/1 Lac J strain supplied by Jackson Laboratories of Bar Harbor, Maine. All mice were female and about 6-8 weeks of age. Eight groups of 10-15 mice per group were acclimated to their surroundings for 7 days. A standard mouse chow and water were provided for ad libitum consumption to all animals.
On Days[…] −10, −7, −5 and −2 prior to immunization, mice were sensitized by sturgeon notochord. A group fed only vehicle was used as the negative control and a group fed with an effective dose of dexamethasone (0.1 mg/kg per os) was used as the positive control. Sturgeon notochord was obtained from farm raised sturgeon and pulverized in liquid nitrogen. The dose level of sturgeon notochord was equilibrated to 1, 3, 10, 30, 100 or 300 μg of collagen per dose based on the protein and collagen content. Sturgeon notochord was dissolved/suspended in 0.01 M acetic acid and 0.3 ml was administered to each mouse with a ball tipped feeding needle.
On Day 0, the mice were immunized at the base of the tail with 100 μg of bovine CII which was emulsified in CFA. On Day 21, the mice were injected subcutaneously with 50 μg of LPS.
Mice were inspected daily for the onset of CIA, characterized by erythema and edema. Limbs were clinically evaluated and graded on a scale of 0 to 6 as described in Example III.
The inventors continued to observe four selected groups (vehicle control group, sturgeon notochord 0.105 mg/dose group, sturgeon notochord 1.053 mg/dose group, and dexamethasone group) until Day 79. Severity scores plotted against days post-sensitization are found in FIG. 1.

Experiment [2] deals with chronic CIA induced by using human CII. The experiment is described as follows: Chronic CIA induced by human type II collagen. The settings on record: 0.1 mg dexamethasone/kg BW on Days 21 and 35. Format: in vivo, Female DBA/1 Lac J strain mice. As for the experimental part: Effect of Sturgeon Notochord in a Chronic Arthritis Induced by Human Type II Collagen This experiment was conducted to investigate the effectiveness of sturgeon notochord in protecting mice from chronic CIA induced by using human CII (unlike other examples in this application which used bovine CII). Female DBA/1 Lac J strain mice, approximately 6-8 weeks of age, were obtained from Jackson Laboratories of Bar Harbor, Maine. Animals were acclimated to their surroundings for 7 days. A standard mouse chow (Teklad diet) and water were provided for ad libitum consumption.
The chronic CIA induction was achieved by immunizing each mice on Day 0 and Day 21 at the base of the tail with […] of human CII which was emulsified in CFA. Animals in the vehicle control group and Dexamethasone control group received 0.01 M acetic acid on Days −10, −7, −5, and −2 and 0.1 mg dexamethasone/kg BW on Days 21 and 35, respectively. The mice receiving sturgeon notochord were divided into three groups and they were dosed with 100 mg collagen per dose dissolved/suspended in 0.01 M acetic acid and 0.3 ml was administered. Group 1 received sturgeon notochord on Days −10, −7, −5, and −2; Group 2, on Days 7, 10, 12, and 14; Group 3, Days 28, 31, 33, and 35.
Mice were inspected daily for the onset of CIA, characterized by erythema and edema. Limbs were clinically evaluated and graded on a scale of 0 to 6 (0, absence of arthritis; 0.5, one or more digits swollen or only the paw swollen; 1, entire paw swollen; 2, entire paw severely swollen; 3, mild deformity after inflammation subsides; 4, severe deformity; 5, mild ankylosis with partial loss of joint function in the paw; 6, severe ankylosis with total loss of joint function in the paw). […]

Experiment [3] concerns collagen-induced arthritis (CIA). The format is in vivo. As for the experimental part:
These Examples were conducted to investigate the effectiveness of sturgeon notochord in protecting mice from collagen-induced arthritis (CIA). Female DBA/1 Lac J strain mice, approximately 6-8 weeks of age, were obtained from Jackson Laboratories of Bar Harbor, Maine. Three groups of 20 mice per group were acclimated to their surroundings for 7 days. A standard mouse chow (Purina Certified Mouse Chow #5015; 11% by wt. fat; collagen-free) and water were provided for ad libitum consumption to all animals.
Bovine serum albumin (a protein derived from non-connective tissue) and cod skin gelatin (a protein derived from another connective tissue containing Type I collagen of a fish) served as negative controls. Sturgeon notochord was obtained from farm raised sturgeon and pulverized in liquid nitrogen. The level of each test composition was equilibrated to a 300 μg protein dose based on protein (including collagen) content. Test articles were dissolved/suspended in 0.01 M acetic acid and 0.3 ml was administered per dose to each mouse with a ball tipped feeding needle.
On Day 0, the mice were immunized at the base of the tail with 100 μg of bovine CII which was emulsified in Complete Freund's Adjuvant (CFA). On Day 7, a second booster dose of 100 μg bovine CII in CFA was administered by the same route. On Day 14, the mice were injected subcutaneously with 100 μg of lipopolysaccharide (LPS). This protocol represents a mild induction of CIA.
Mice were inspected daily for the onset of CIA, characterized by erythema and edema. Limbs were clinically evaluated and graded on a scale of 0 to 3 (0, absence of arthritis; 1, mild swelling and erythema; 2, swelling and erythema of both tarsus and ankle; 3, ankylosis and bone deformity). […] All mice were euthanized by CO2 on Day 50.

With `C[C@@H]1C[C@H]2[C@@H]3CCC4=CC(=O)C=C[C@]4(C)[C@@]3(F)[C@@H](O)C[C@]2(C)[C@@]1(O)C(=O)CO` [Dexamethasone], the “% of incidence” value in experiment [1] (D26) was 40%; in experiment [1] (D28) it was 50%; in experiment [1] (D35) it was 50%. The severity score in experiment [1] (D26) came to 1.0 ± 0.4; in experiment [1] (D28), 1.1 ± 0.4; in experiment [1] (D35) it was 1.1 ± 0.4; in experiment [2] (D28), 0.25; in experiment [2] (D35), 0.42; in experiment [2] (D42) it was 1.75. The compound also displayed a severity score in experiment [2] (D49) of 3.58. Further, the “% incidence” value in experiment [2] (D28) came to 33%; in experiment [2] (D35) it was 67%; in experiment [2] (D42), 100%; in experiment [2] (D49) it was 100%.

bovine serum albumin [BSA]: the “median day of onset” value in experiment [3] (300 μg protein dose oral on Days −10, −7, −5 and −2) came to 17 days. In addition, the “# animals with arthritis” value was 12 in experiment [3] (Day 20, 300 μg protein dose oral on Days −10, −7, −5 and −2); 12 in experiment [3] (Day 28, 300 μg protein dose oral on Days −10, −7, −5 and −2); 12 in experiment [3] (Day 40, 300 μg protein dose oral on Days −10, −7, −5 and −2); 14 in experiment [3] (Day 50, 300 μg protein dose oral on Days −10, −7, −5 and −2). Further, the “% onset” value in experiment [3] (calculated based on the Day 50 data, 300 μg protein dose) is 78%. In experiment [3] (scale of 0 to 3, based on Day 20, 29, 34, 43 and 50 data, 300 μg protein dose), this compound yielded a mean severity score of 2.05.
